Test results from patent publication US20250163104A1, “MACROCYCLIC IMMUNOMODULATORS” (priority 2021, published 2025).
Where a SMILES comes first, the peptide text is derived from it. Bridges are numbered along the chain shown (N, C = ends). [ ]: non-standard residue; d: D form. The star is where a group is joined. Phe(3-COOH) = N[C@@H](Cc1cccc(C(=O)O)c1)C(=O)O; Phe(4-COOH) = N[C@@H](Cc1ccc(C(=O)O)cc1)C(=O)O; Trp(7-Me) = Cc1cccc2c(C[C@H](N)C(=O)O)c[nH]c12; Bip = N[C@@H](Cc1ccc(-c2ccccc2)cc1)C(=O)O; Phe(3-Me) = Cc1cccc(C[C@H](N)C(=O)O)c1; Cha = N[C@@H](CC1CCCCC1)C(=O)O; Cit = NC(=O)NCCC[C@H](N)C(=O)O; Hpra = C#CCC[C@H](N)C(=O)O; Carboxymethyl = O=C(O)C*; Orn = NCCC[C@H](N)C(=O)O; Pra = C#CC[C@H](N)C(=O)O; Dab = NCC[C@H](N)C(=O)O; Dap = NC[C@H](N)C(=O)O

What follows are compounds tested against T1, human PD-1 / PD-L1-Ig binding on Jurkat cell line over-expressing human PD-1 (Jurkat-PD-1) (Homo sapiens, UniProt Q15116) (assay: Jurkat-PD-1 Cell Binding High-Content Screening Assay (CBA)). Details: Jurkat-PD-1 cells, PE-labeled PD-L1-Ig 20 nM final; read-out: Jurkat HPD1_PDL1 IC50.
T1 construct: expressed in transfected cells; host or cells: Jurkat
T1 sequence (Q15116 25-288): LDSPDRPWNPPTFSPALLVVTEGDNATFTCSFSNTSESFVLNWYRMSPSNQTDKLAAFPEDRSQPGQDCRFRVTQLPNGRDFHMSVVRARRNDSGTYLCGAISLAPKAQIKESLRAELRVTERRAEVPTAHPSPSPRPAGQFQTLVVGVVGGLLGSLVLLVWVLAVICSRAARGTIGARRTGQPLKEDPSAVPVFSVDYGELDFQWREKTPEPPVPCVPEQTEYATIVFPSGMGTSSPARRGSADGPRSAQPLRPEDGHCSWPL
Assay type: cell-based
Summary of the method: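 Compounds were preincubated with Jurkat-hPD-1 cells in DMEM plus 10% fetal calf serum for 2 h at 37° C. Phycoerythrin-labeled PD-L1-Ig (20 nM final) was then added for 1 hour. Cells were fixed in 4% paraformaldehyde with Hoechst 33342, and bound fluorescence was quantified by high-content imaging.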

SMILES	IC50 [nM]
Cc1cccc(C[C@@H]2NC(=O)[C@H](CC(=O)O)NC(=O)[C@H](Cc3ccc(C(=O)O)cc3)NC(=O)[C@H](CN)NC(=O)CSC[C@@H](C(=O)N[C@@H](CCN)C(N)=O)NC(=O)[C@H]([C@@H](C)O)NC(=O)[C@H](C(C)C)NC(=O)[C@H](CC(C)C)NC(=O)[C@H](CCN)NC(=O)[C@@H](CC(C)C)NC(=O)[C@H](CCCN)NC(=O)[C@H](C(C)C)NC(=O)[C@H](Cc3ccc(-c4ccccc4)cc3)NC(=O)[C@H](C(C)C)NC2=O)c1 [Compound 2008] ({CH2CO}-[Dap][Phe(4-COOH)]D[Phe(3-Me)]V[Bip]V[Orn][dL][Dab]LVTC[Dab]-NH2; thioether N-14)	19.9
Cc1cccc(C[C@@H]2NC(=O)[C@H](CC(=O)O)NC(=O)[C@H](Cc3ccc(OCC(=O)O)cc3)NC(=O)[C@H](CN)NC(=O)CSC[C@@H](C(=O)N[C@@H](CCCN)C(N)=O)NC(=O)[C@H]([C@@H](C)O)NC(=O)[C@H](C(C)C)NC(=O)[C@H](CC3CCCCC3)NC(=O)[C@H](CCN)NC(=O)[C@@H](CC(C)C)NC(=O)[C@H](CCCN)NC(=O)[C@H](CCCNC(N)=O)NC(=O)[C@H](Cc3ccc(-c4ccccc4)cc3)NC(=O)[C@H](C(C)C)NC2=O)c1 [Compound 2011] ({CH2CO}-[Dap]Y(Carboxymethyl)D[Phe(3-Me)]V[Bip][Cit][Orn][dL][Dab][Cha]VTC[Orn]-NH2; thioether N-14)	11.9
C#CCC[C@@H]1NC(=O)[C@H](CC2CCCCC2)NC(=O)[C@H](CCN)NC(=O)[C@@H](CC(C)C)NC(=O)[C@H](CCCN)NC(=O)[C@H](C(C)C)NC(=O)[C@H](Cc2ccc(-c3ccccc3)cc2)NC(=O)[C@H](C(C)C)NC(=O)[C@H](Cc2cccc(C)c2)NC(=O)[C@H](CC(=O)O)NC(=O)[C@H](Cc2ccc(OCC(=O)O)cc2)NC(=O)[C@H](CN)NC(=O)CSC[C@@H](C(N)=O)NC(=O)[C@H]([C@@H](C)O)NC1=O [Compound 2012] ({CH2CO}-[Dap]Y(Carboxymethyl)D[Phe(3-Me)]V[Bip]V[Orn][dL][Dab][Cha][Hpra]TC-NH2; thioether N-14)	15.8
C#CC[C@@H]1NC(=O)[C@H](CC2CCCCC2)NC(=O)[C@H](CCN)NC(=O)[C@@H](CC(C)C)NC(=O)[C@H](CCCN)NC(=O)[C@H](C(C)C)NC(=O)[C@H](Cc2ccc(-c3ccccc3)cc2)NC(=O)[C@H](C(C)C)NC(=O)[C@H](Cc2cccc(C)c2)NC(=O)[C@H](CC(=O)O)NC(=O)[C@H](Cc2ccc(OCC(=O)O)cc2)NC(=O)[C@H](CN)NC(=O)CSC[C@@H](C(N)=O)NC(=O)[C@H]([C@@H](C)O)NC1=O [Compound 2013] ({CH2CO}-[Dap]Y(Carboxymethyl)D[Phe(3-Me)]V[Bip]V[Orn][dL][Dab][Cha][Pra]TC-NH2; thioether N-14)	21.2
CC(C)C[C@@H]1NC(=O)[C@H](Cc2c[nH]c3ccccc23)NC(=O)[C@H](CC(=O)O)NC(=O)[C@H](Cc2ccc(C(=O)O)cc2)NC(=O)[C@H](Cc2cccc(C(=O)O)c2)NC(=O)CSC[C@@H](C(=O)NCC(N)=O)NC(=O)[C@H](CO)NC(=O)[C@H](C(C)C)NC(=O)[C@H](CC2CCCCC2)NC(=O)[C@H](CCN)NC(=O)[C@@H](CC(C)C)NC(=O)[C@H](CCCN)NC(=O)[C@H](C(C)C)NC(=O)[C@H](Cc2ccc(-c3ccccc3)cc2)NC1=O [Compound 2014] ({CH2CO}-[Phe(3-COOH)][Phe(4-COOH)]DWL[Bip]V[Orn][dL][Dab][Cha]VSCG-NH2; thioether N-14)	17.2
Cc1cccc2c(C[C@@H]3NC(=O)[C@H](CC(=O)O)NC(=O)[C@H](Cc4ccc(OCC(=O)O)cc4)NC(=O)[C@H](CN)NC(=O)CSC[C@@H](C(=O)N[C@@H](CCN)C(N)=O)NC(=O)[C@H]([C@@H](C)O)NC(=O)[C@H](C(C)C)NC(=O)[C@H](CC4CCCCC4)NC(=O)[C@H](CCN)NC(=O)[C@@H](CC(C)C)NC(=O)[C@H](CCCN)NC(=O)[C@H](C(C)C)NC(=O)[C@H](Cc4ccc(-c5ccccc5)cc4)NC(=O)[C@H](C(C)C)NC3=O)c[nH]c12 [Compound 2018] ({CH2CO}-[Dap]Y(Carboxymethyl)D[Trp(7-Me)]V[Bip]V[Orn][dL][Dab][Cha]VTC[Dab]-NH2; thioether N-14)	335

Continued by falling IC50, values first:

IC50 [nM]	SMILES
11.6	C#CC[C@H](NC(=O)[C@H](CCCN)NC(=O)[C@@H]1CSCC(=O)N[C@@H](CN)C(=O)N[C@@H](Cc2ccc(OCC(=O)O)cc2)C(=O)N[C@@H](CC(=O)O)C(=O)N[C@@H](Cc2cccc(C)c2)C(=O)N[C@@H](C(C)C)C(=O)N[C@@H](Cc2ccc(-c3ccccc3)cc2)C(=O)N[C@@H](C(C)C)C(=O)N[C@@H](CCCN)C(=O)N[C@H](CC(C)C)C(=O)N[C@@H](CCN)C(=O)N[C@@H](CC2CCCCC2)C(=O)N[C@@H](C(C)C)C(=O)N[C@@H]([C@@H](C)O)C(=O)N1)C(N)=O [Compound 2017] ({CH2CO}-[Dap]Y(Carboxymethyl)D[Phe(3-Me)]V[Bip]V[Orn][dL][Dab][Cha]VTC[Orn][Pra]-NH2; thioether N-14)
10.5	CCNC(=O)[C@H](C)NC(=O)[C@@H]1CSCC(=O)N[C@@H](CN)C(=O)N[C@@H](Cc2ccc(OCC(=O)O)cc2)C(=O)N[C@@H](CC(=O)O)C(=O)N[C@@H](Cc2cccc(C)c2)C(=O)N[C@@H](C(C)C)C(=O)N[C@@H](Cc2ccc(-c3ccccc3)cc2)C(=O)N[C@@H](CCCNC(N)=O)C(=O)N[C@@H](CCCN)C(=O)N[C@H](CC(C)C)C(=O)N[C@@H](CCN)C(=O)N[C@@H](CC2CCCCC2)C(=O)N[C@@H](C(C)C)C(=O)N[C@@H](CN)C(=O)N1 [Compound 2015] ({CH2CO}-[Dap]Y(Carboxymethyl)D[Phe(3-Me)]V[Bip][Cit][Orn][dL][Dab][Cha]V[Dap]CA-NHEt; thioether N-14)
10.3	Cc1cccc(C[C@@H]2NC(=O)[C@H](CC(=O)O)NC(=O)[C@H](Cc3ccc(OCC(=O)O)cc3)NC(=O)[C@H](CN)NC(=O)CSC[C@@H](C(=O)N[C@@H](CCN)C(N)=O)NC(=O)[C@H]([C@@H](C)O)NC(=O)[C@H](C(C)C)NC(=O)[C@H](CC3CCCCC3)NC(=O)[C@H](CCN)NC(=O)[C@@H](CC(C)C)NC(=O)[C@H](CCCN)NC(=O)[C@H](CCCNC(N)=O)NC(=O)[C@H](Cc3ccc(-c4ccccc4)cc3)NC(=O)[C@H](C(C)C)NC2=O)c1 [Compound 2010] ({CH2CO}-[Dap]Y(Carboxymethyl)D[Phe(3-Me)]V[Bip][Cit][Orn][dL][Dab][Cha]VTC[Dab]-NH2; thioether N-14)
5.8	CCNC(=O)[C@H](CCN)NC(=O)[C@@H]1CSCC(=O)N[C@@H](CN)C(=O)N[C@@H](Cc2ccc(OCC(=O)O)cc2)C(=O)N[C@@H](CC(=O)O)C(=O)N[C@@H](Cc2cccc(C)c2)C(=O)N[C@@H](C(C)C)C(=O)N[C@@H](Cc2ccc(-c3ccccc3)cc2)C(=O)N[C@@H](CCCNC(N)=O)C(=O)N[C@@H](CCCN)C(=O)N[C@H](CC(C)C)C(=O)N[C@@H](CCN)C(=O)N[C@@H](CC2CCCCC2)C(=O)N[C@@H](C(C)C)C(=O)N[C@@H]([C@@H](C)O)C(=O)N1 [Compound 2009] ({CH2CO}-[Dap]Y(Carboxymethyl)D[Phe(3-Me)]V[Bip][Cit][Orn][dL][Dab][Cha]VTC[Dab]-NHEt; thioether N-14)
